Data published in patent publication US9867795B2, “Nitrated lipids and methods of making and using thereof” (The UAB Research Foundation, priority 2004, dated 2018).
Entries after “also recorded” stand apart in the source; their conditions may differ.

Experiments:
[1] = biological target: T1, hPPARγ (Homo sapiens, UniProt P37231); experiment: CV-1 PPRE×3 TK-Luciferase transient transfection assay; type: cell-based; settings: GW9662 added 1 hr prior to nitrated fatty acid
T1 construct: For assessing full-length PPAR receptors, CV-1 cells were transiently co-transfected; expressed in transfected cells; host or cells: CV-1 cells
T1 sequence (P37231 1-505): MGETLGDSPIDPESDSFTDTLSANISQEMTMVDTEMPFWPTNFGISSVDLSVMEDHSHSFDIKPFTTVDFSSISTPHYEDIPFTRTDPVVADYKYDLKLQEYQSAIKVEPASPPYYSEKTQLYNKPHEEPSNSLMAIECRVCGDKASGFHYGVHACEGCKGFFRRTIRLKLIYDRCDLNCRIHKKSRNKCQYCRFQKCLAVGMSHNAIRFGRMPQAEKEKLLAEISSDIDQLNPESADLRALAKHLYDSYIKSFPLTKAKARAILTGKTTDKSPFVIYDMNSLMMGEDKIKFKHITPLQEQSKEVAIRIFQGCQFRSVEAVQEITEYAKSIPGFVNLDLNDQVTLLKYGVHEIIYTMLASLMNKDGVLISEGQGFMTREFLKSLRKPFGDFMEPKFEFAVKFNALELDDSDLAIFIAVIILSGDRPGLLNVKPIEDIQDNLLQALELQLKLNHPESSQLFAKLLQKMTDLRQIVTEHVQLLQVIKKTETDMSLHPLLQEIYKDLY
Source text: Cell Transient Transfection Assay. […] Then, cells were transiently co-transfected with a plasmid containing the luciferase gene under regulation by four Gal4 DNA binding elements (UASG×4 TK-Luciferase, a gift from Dr. Ronald M. Evans), in concert with plasmids containing the ligand binding domain for the different nuclear receptors fused to the Gal4 DNA binding domain. For assessing full-length PPAR receptors, CV-1 cells were transiently co-transfected with a plasmid containing the luciferase gene under the control of three tandem PPAR response elements (PPRE) (PPRE×3 TK-Luciferase) and hPPARγ, hPPARα or hPPARδ expression plasmids, respectively. In all cases, fluorescence protein (GFP) expression plasmid was co-transfected as the control for the transfection efficiency. Twenty-four hours after the transfection, cells were cultured for another 24 hours in Optium-MEM (Invitrogen, Carlsbad, Calif.). Then, cells were treated with different compounds as indicated in figures for 24 hours in Optium-MEM. Reporter luciferase assay kits from Promega (Madison, Wis.) were used to measure the luciferase activity according to the manufacturer's instructions with a luminometer (Victor II, Perkin-Elmer). Luciferase activity was normalized by GFP units. Each condition was performed at least in triplicates in each experiment.
PPAR transient transfection assay. […] Twelve hours before transfection, the media was removed and antibiotic-free media was applied. Cells were transiently co-transfected with a plasmid containing the luciferase gene under the control of three tandem PPAR response elements (PPRE) (PPRE×3 TK-Luciferase) and PPARγ, PPARα or PPARδ expression plasmids, respectively. In all cases, fluorescence protein (GFP) expression plasmid was co-transfected as the control for transfection efficiency. Twenty-four hours after transfection, cells the returned to OptiMEM (Invitrogen, Carlsbad, Calif.) for 24 hr and then treated as indicated for another 24 hr. Reporter luciferase assay kits from Promega (Madison, Wis.) were used to measure the luciferase activity according to the manufacturer's instructions with a luminometer (Victor II, Perkin-Elmer). Luciferase activity was normalized by GFP units. Each condition was performed in triplicate in each experiment (n>3).

[2] = test system: mouse RAW264.7 macrophages; experiment: CD36 expression in macrophages (immunoblot, real-time PCR); settings: GW9662 added 1 h prior to treatment
[3] = test system: 3T3-L1 adipocytes; experiment: [^3H]-2-Deoxy-D-glucose uptake assay in differentiated 3T3-L1 adipocytes; type: cell-based; settings: GW9662 added 1 h before nitrated lipids or Rosiglitazone
Method: [^3H]-2-Deoxy-D-glucose Uptake Assay in Differentiated 3T3-L1 Adipocyte. [^3H]-2-Deoxy-D-glucose uptake assay as previously described (19) 3T3-L1 preadipocytes were grown in 24-well tissue culture plates, 2-day postconfluent preadipocytes were treated by 10 μg/ml insulin (Sigma), 1 μM dexamethasone (Sigma), and 0.5 mM 3-isobutyl-1-methylxanthine (Sigma) in DMEM containing 10% FBS for two days, then cells were kept in 10 μg/ml insulin also in DMEM containing 10% FBS for 6 days (changed medium every three days). Eight days after induction of adipogenesis, test compounds in DMEM containing 10% FBS were added for an additional 2 days (changed medium every day) and PPARγ-specific antagonist GW9662 were pretreated 1 h before other additions. After two rinses with serum-free DMEM, cells were incubated for 3 h in serum-free DMEM and rinsed at room temperature three times with freshly prepared KRPH buffer (5 mM phosphate buffer, 20 mM HEPES, 1 mM MgSO4, 1 mM CaCl2, 136 mM NaCl, 4.7 mM KCl, pH 7.4). The buffer was replaced with 1 μCi/ml of [^3H]-2-deoxy-D-glucose in KRPH buffer for 10 min at room temperature. The treated cells were rinsed carefully three times with cold PBS, lysed overnight in 0.8N NaOH (0.4 ml/well), and neutralized with […] of 12N HCl. Lysate (360 μl) was added to 4 ml Scinti-Safe Plus TM 50% in a scintillation vial, and the vials were mixed and counted.
[^3H]-2-Deoxy-D-glucose uptake assay in differentiated 3T3-L1 adipocytes. [^3H]-2-deoxy-D-glucose uptake was analyzed as previously (23). […] Cells were then rinsed three times with cold PBS, lysed overnight in 0.8 N NaOH (0.4 ml/well), neutralized with 26.6 μl of 12 N HCl and 360 μl of lysate was added into 4 ml Scinti-Safe Plus™ 50% for radioactivity determination by liquid scintillation counting.

O=C(Nc1ccccc1)c1cc([N+](=O)[O-])ccc1Cl [GW9662, reference compound]
effect of GW9662 on nitrated fatty acid-mediated PPARγ activation [1]: inhibited in a dose-dependent manner; also recorded: partially inhibited; also recorded: partially yet significantly blocked
effect of GW9662 on LNO2-induced CD36 expression [2]: partially inhibitable
effect of GW9662 on induced glucose uptake [3]: partially inhibited; also recorded: significantly inhibited
